Where a SMILES comes first, the peptide text is derived from it. [ ]: non-standard residue; d: D form. Dap(CONH2) = NC(=O)NC[C@H](N)C(=O)O; Cha = N[C@@H](CC1CCCCC1)C(=O)O; Chg = N[C@H](C(=O)O)C1CCCCC1; Tle = CC(C)(C)[C@H](N)C(=O)O; dDab = NCC[C@@H](N)C(=O)O; Orn = NCCC[C@H](N)C(=O)O; Api = NC1(C(=O)O)CCNCC1; Dab = NCC[C@H](N)C(=O)O; Nva = CCC[C@H](N)C(=O)O
system: human red blood cells (hRBC); assay type: cell-based; conditions: red cells of human, 1 h
Protocol: The peptides were tested for their hemolytic activity against human red blood cells (hRBC). Fresh hRBC were washed three times with phosphate buffered saline (PBS) and centrifuged for 10 min at 2000×g. Compounds (100 μg/ml) were incubated with 20% hRBC (v/v) for 1 h at 37° C. and shaking at 300 rpm. The final erythrocyte concentration was approximately 0.9×10^9 cells/ml. A value of 0% and 100% cell lyses, respectively, was determined by incubation of hRBC in the presence of PBS containing 0.001% acetic acid and 2.5% Triton X-100 in H2O, respectively. The samples were centrifuged, the supernatants were 8-fold diluted in PBS buffer and the optical densities (OD) were measured at 540 nm. The 100% lyses value (OD540H2O) gave an OD540 of approximately 0.5-1.0. Percent hemolysis was calculated as follows: (OD540peptide/OD540H2O)×100%.

Point of comparison: `CC(C)C[C@@H]1NC(=O)[C@H](Cc2c[nH]c3ccccc23)NC(=O)[C@H](Cc2c[nH]c3ccccc23)NC(=O)[C@@H]2CCCN2C(=O)[C@H]2CCCN2C(=O)[C@H](C(C)C)NC(=O)[C@H](C)NC(=O)[C@H](C(C)C)NC(=O)[C@H](CCN)NC(=O)[C@H](Cc2c[nH]c3ccccc23)NC(=O)[C@H](CCN)NC(=O)[C@@H](CCN)NC(=O)[C@H](CCCN)NC(=O)[C@H](CCN)NC1=O` [compound 13, cyclo(-Trp-Trp-Leu-Dab-Orn-^DDab-Dab-Trp-Dab-Val-Ala-Val-^DPro-Pro-)] (cyclo(WWL[Dab][Orn][dDab][Dab]W[Dab]VAV[dP]P)), “Hemolysis at 100 μg/ml” value 2%. Against it:
- C[C@@H]1NC(=O)[C@H](C(C)(C)C)NC(=O)[C@H](CCN)NC(=O)[C@H](Cc2c[nH]c3ccccc23)NC(=O)[C@H](CCN)NC(=O)[C@@H](CCN)NC(=O)[C@H](CCCN)NC(=O)[C@H](CCN)NC(=O)[C@H](Cc2ccc(O)cc2)NC(=O)[C@H](Cc2c[nH]cn2)NC(=O)[C@H](Cc2c[nH]c3ccccc23)NC(=O)[C@@H]2CCCN2C(=O)[C@H]2CCCN2C(=O)[C@H](CO)NC1=O [compound 2, cyclo(-Trp-His-Tyr-Dab-Orn-^DDab-Dab-Trp-Dab-tBuGly-Ala-Ser-^DPro-Pro-)] (cyclo(WHY[Dab][Orn][dDab][Dab]W[Dab][Tle]AS[dP]P)) — lower, 1%
- CCC[C@@H]1NC(=O)[C@H](CCN)NC(=O)[C@H](Cc2c[nH]c3ccccc23)NC(=O)[C@H](CCN)NC(=O)[C@@H](CCN)NC(=O)[C@H](CCCN)NC(=O)[C@H](CCN)NC(=O)[C@H](CC2CCCCC2)NC(=O)[C@H](Cc2c[nH]cn2)NC(=O)[C@H](Cc2c[nH]c3ccccc23)NC(=O)[C@@H]2CCCN2C(=O)[C@H]2CCCN2C(=O)[C@H](CO)NC(=O)[C@H](C)NC1=O [compound 3, cyclo(-Trp-His-Cha-Dab-Orn-^DDab-Dab-Trp-Dab-Nva-Ala-Ser-^DPro-Pro-)] (cyclo(WH[Cha][Dab][Orn][dDab][Dab]W[Dab][Nva]AS[dP]P)) — higher, 3%
- CC(C)[C@@H]1NC(=O)[C@H](C(C)(C)C)NC(=O)[C@H](CCN)NC(=O)[C@H](Cc2c[nH]c3ccccc23)NC(=O)[C@H](CCN)NC(=O)[C@@H](CCN)NC(=O)[C@H](CCCN)NC(=O)[C@H](CCN)NC(=O)[C@H](CC2CCCCC2)NC(=O)[C@H](Cc2c[nH]cn2)NC(=O)[C@H](Cc2c[nH]c3ccccc23)NC(=O)[C@@H]2CCCN2C(=O)[C@H]2CCCN2C(=O)[C@H](CO)NC1=O [compound 4, cyclo(-Trp-His-Cha-Dab-Orn-^DDab-Dab-Trp-Dab-tBuGly-Val-Ser-^DPro-Pro-)] (cyclo(WH[Cha][Dab][Orn][dDab][Dab]W[Dab][Tle]VS[dP]P)) — higher, 5%
- CC(C)C[C@@H]1NC(=O)[C@@H]2CCCN2C(=O)[C@H]2CCCN2C(=O)[C@H](CO)NC(=O)[C@H](C)NC(=O)[C@H](C(C)(C)C)NC(=O)[C@H](CCN)NC(=O)[C@H](Cc2c[nH]c3ccccc23)NC(=O)[C@H](CCN)NC(=O)[C@@H](CCN)NC(=O)[C@H](CCCN)NC(=O)[C@H](CCN)NC(=O)[C@H](Cc2ccc(O)cc2)NC(=O)[C@H](Cc2c[nH]cn2)NC1=O [compound 5, cyclo(-Leu-His-Tyr-Dab-Orn-^DDab-Dab-Trp-Dab-tBuGly-Ala-Ser-^DPro-Pro-)] (cyclo(LHY[Dab][Orn][dDab][Dab]W[Dab][Tle]AS[dP]P)) — lower, 0%
- CC(C)C[C@@H]1NC(=O)[C@@H]2CCCN2C(=O)[C@H]2CCCN2C(=O)[C@H](CO)NC(=O)[C@H](CNC(N)=O)NC(=O)[C@H](C(C)(C)C)NC(=O)[C@H](CCN)NC(=O)[C@H](Cc2c[nH]c3ccccc23)NC(=O)[C@H](CCN)NC(=O)C2(CCNCC2)NC(=O)[C@H](CCCN)NC(=O)[C@H](CCN)NC(=O)[C@H](CC2CCCCC2)NC(=O)[C@H](Cc2c[nH]cn2)NC1=O [compound 6, cyclo(-Leu-His-Cha-Dab-Orn-Pip-Dab-Trp-Dab-tBuGly-Alb-Ser-^DPro-Pro-)] (cyclo(LH[Cha][Dab][Orn][Api][Dab]W[Dab][Tle][Dap(CONH2)]S[dP]P)) — higher, 3%
- CC(C)[C@@H]1NC(=O)[C@@H]2CCCN2C(=O)[C@H]2CCCN2C(=O)[C@H](CO)NC(=O)[C@H](C)NC(=O)[C@H](C(C)(C)C)NC(=O)[C@H](CCN)NC(=O)[C@H](Cc2c[nH]c3ccccc23)NC(=O)[C@H](CCN)NC(=O)[C@@H](CCN)NC(=O)[C@H](CCCN)NC(=O)[C@H](CCN)NC(=O)[C@H](Cc2ccc(O)cc2)NC(=O)[C@H](Cc2c[nH]cn2)NC1=O [compound 7, cyclo(-Val-His-Tyr-Dab-Orn-^DDab-Dab-Trp-Dab-tBuGly-Ala-Ser-^DPro-Pro-)] (cyclo(VHY[Dab][Orn][dDab][Dab]W[Dab][Tle]AS[dP]P)) — lower, 1%
- CCC[C@@H]1NC(=O)[C@@H]2CCCN2C(=O)[C@H]2CCCN2C(=O)[C@H](CO)NC(=O)[C@H](C)NC(=O)[C@H](C(C)(C)C)NC(=O)[C@H](CCN)NC(=O)[C@H](Cc2c[nH]c3ccccc23)NC(=O)[C@H](CCN)NC(=O)[C@@H](CCN)NC(=O)[C@H](CCCN)NC(=O)[C@H](CCN)NC(=O)[C@H](Cc2ccc(O)cc2)NC(=O)[C@H](Cc2c[nH]cn2)NC1=O [compound 8, cyclo(-Nva-His-Tyr-Dab-Orn-^DDab-Dab-Trp-Dab-tBuGly-Ala-Ser-^DPro-Pro-)] (cyclo([Nva]HY[Dab][Orn][dDab][Dab]W[Dab][Tle]AS[dP]P)) — lower, 1%
- C[C@@H]1NC(=O)[C@H](C2CCCCC2)NC(=O)[C@H](CCN)NC(=O)[C@H](Cc2c[nH]c3ccccc23)NC(=O)[C@H](CCN)NC(=O)[C@@H](CCN)NC(=O)[C@H](CCCCN)NC(=O)[C@H](CCN)NC(=O)[C@H](CC2CCCCC2)NC(=O)[C@H](Cc2c[nH]c3ccccc23)NC(=O)[C@H](Cc2c[nH]c3ccccc23)NC(=O)[C@@H]2CCCN2C(=O)[C@H]2CCCN2C(=O)[C@H](CO)NC1=O [compound 10, cyclo(-Trp-Trp-Cha-Dab-Lys-^DDab-Dab-Trp-Dab-Chg-Ala-Ser-^DPro-Pro-)] (cyclo(WW[Cha][Dab]K[dDab][Dab]W[Dab][Chg]AS[dP]P)) — lower, 1%
- C[C@@H]1NC(=O)[C@H](CC2CCCCC2)NC(=O)[C@H](CCN)NC(=O)[C@H](Cc2c[nH]c3ccccc23)NC(=O)[C@H](CCN)NC(=O)[C@@H](CCN)NC(=O)[C@H](CCCN)NC(=O)[C@H](CCN)NC(=O)[C@H](C(C)(C)C)NC(=O)[C@H](Cc2c[nH]c3ccccc23)NC(=O)[C@H](Cc2c[nH]c3ccccc23)NC(=O)[C@@H]2CCCN2C(=O)[C@H]2CCCN2C(=O)[C@H](CO)NC1=O [compound 12, cyclo(-Trp-Trp-tBuGly-Dab-Orn-^DDab-Dab-Trp-Dab-Cha-Ala-Ser-^DPro-Pro-)] (cyclo(WW[Tle][Dab][Orn][dDab][Dab]W[Dab][Cha]AS[dP]P)) — higher, 3%
- C[C@@H]1NC(=O)[C@H](C(C)(C)C)NC(=O)[C@H](CCN)NC(=O)[C@H](Cc2c[nH]c3ccccc23)NC(=O)[C@H](CCN)NC(=O)[C@H](CCN)NC(=O)[C@H](CCCN)NC(=O)[C@H](CCN)NC(=O)[C@H](Cc2ccc(O)cc2)NC(=O)[C@H](Cc2c[nH]cn2)NC(=O)[C@H](Cc2c[nH]c3ccccc23)NC(=O)[C@@H]2CCCN2C(=O)[C@H]2CCCN2C(=O)[C@H](CO)NC1=O [compound 18, cyclo(-Trp-His-Tyr-Dab-Orn-Dab-Dab-Trp-Dab-tBuGly-Ala-Ser-^DPro-Pro-)] (cyclo(WHY[Dab][Orn][Dab][Dab]W[Dab][Tle]AS[dP]P)) — lower, 0%
- C[C@@H]1NC(=O)[C@H](C(C)(C)C)NC(=O)[C@H](CCN)NC(=O)[C@H](Cc2c[nH]c3ccccc23)NC(=O)[C@H](CCN)NC(=O)[C@H](CCN)NC(=O)[C@H](CCCN)NC(=O)[C@H](CCN)NC(=O)[C@H](CC2CCCCC2)NC(=O)[C@H](Cc2c[nH]cn2)NC(=O)[C@H](Cc2c[nH]c3ccccc23)NC(=O)[C@@H]2CCCN2C(=O)[C@H]2CCCN2C(=O)[C@H](CO)NC1=O [compound 19, cyclo(-Trp-His-Cha-Dab-Orn-Dab-Dab-Trp-Dab-tBuGly-Ala-Ser-^DPro-Pro-)] (cyclo(WH[Cha][Dab][Orn][Dab][Dab]W[Dab][Tle]AS[dP]P)) — lower, 0%
- CC[C@H](C)[C@@H]1NC(=O)[C@@H]2CCCN2C(=O)[C@H]2CCCN2C(=O)[C@H](CO)NC(=O)[C@H](C)NC(=O)[C@H](C(C)(C)C)NC(=O)[C@H](CCN)NC(=O)[C@H](Cc2c[nH]c3ccccc23)NC(=O)[C@H](CCN)NC(=O)[C@@H](CCN)NC(=O)[C@H](CCCN)NC(=O)[C@H](CCN)NC(=O)[C@H](Cc2ccc(O)cc2)NC(=O)[C@H](Cc2c[nH]cn2)NC1=O [compound 20, cyclo(-Ile-His-Tyr-Dab-Orn-^DDab-Dab-Trp-Dab-tBuGly-Ala-Ser-^DPro-Pro-)] (cyclo(IHY[Dab][Orn][dDab][Dab]W[Dab][Tle]AS[dP]P)) — lower, 0%
- CC[C@H](C)[C@@H]1NC(=O)[C@H](CCN)NC(=O)[C@H](Cc2c[nH]c3ccccc23)NC(=O)[C@H](CCN)NC(=O)[C@@H](CCN)NC(=O)[C@H](CCCN)NC(=O)[C@H](CCN)NC(=O)[C@H](Cc2ccc(O)cc2)NC(=O)[C@H](Cc2c[nH]cn2)NC(=O)[C@H]([C@@H](C)CC)NC(=O)[C@@H]2CCCN2C(=O)[C@H]2CCCN2C(=O)[C@H](CO)NC(=O)[C@H](C)NC1=O [compound 21, cyclo(-Ile-His-Tyr-Dab-Orn-^DDab-Dab-Trp-Dab-Ile-Ala-Ser-^DPro-Pro-)] (cyclo(IHY[Dab][Orn][dDab][Dab]W[Dab]IAS[dP]P)) — lower, 1%
- CC(C)C[C@@H]1NC(=O)[C@@H]2CCCN2C(=O)[C@H]2CCCN2C(=O)[C@H](CO)NC(=O)[C@H](C)NC(=O)[C@H](C2CCCCC2)NC(=O)[C@H](CCN)NC(=O)[C@H](Cc2c[nH]c3ccccc23)NC(=O)[C@H](CCN)NC(=O)[C@H](CCN)NC(=O)[C@H](CCCN)NC(=O)[C@H](CCN)NC(=O)[C@H](Cc2ccc(O)cc2)NC(=O)[C@H](Cc2c[nH]cn2)NC1=O [compound 22, cyclo(-Leu-His-Tyr-Dab-Orn-Dab-Dab-Trp-Dab-Chg-Ala-Ser-^DPro-Pro-)] (cyclo(LHY[Dab][Orn][Dab][Dab]W[Dab][Chg]AS[dP]P)) — lower, 0%
